Drawing on paper PMC3668458 (Journal of neuroscience research, 2011), this text covers Kb for one compound.

The assay concerns the target α4β2 nicotinic acetylcholine receptor (α4 subunit) (Homo sapiens, UniProt P17787+P43681). As to the kind of experiment: whole-cell patch clamp, Schild plot analysis of inhibition of ACh currents. Format: cell-based.

Sequence of α4β2 nicotinic acetylcholine receptor (α4 subunit) (P43681 27-627): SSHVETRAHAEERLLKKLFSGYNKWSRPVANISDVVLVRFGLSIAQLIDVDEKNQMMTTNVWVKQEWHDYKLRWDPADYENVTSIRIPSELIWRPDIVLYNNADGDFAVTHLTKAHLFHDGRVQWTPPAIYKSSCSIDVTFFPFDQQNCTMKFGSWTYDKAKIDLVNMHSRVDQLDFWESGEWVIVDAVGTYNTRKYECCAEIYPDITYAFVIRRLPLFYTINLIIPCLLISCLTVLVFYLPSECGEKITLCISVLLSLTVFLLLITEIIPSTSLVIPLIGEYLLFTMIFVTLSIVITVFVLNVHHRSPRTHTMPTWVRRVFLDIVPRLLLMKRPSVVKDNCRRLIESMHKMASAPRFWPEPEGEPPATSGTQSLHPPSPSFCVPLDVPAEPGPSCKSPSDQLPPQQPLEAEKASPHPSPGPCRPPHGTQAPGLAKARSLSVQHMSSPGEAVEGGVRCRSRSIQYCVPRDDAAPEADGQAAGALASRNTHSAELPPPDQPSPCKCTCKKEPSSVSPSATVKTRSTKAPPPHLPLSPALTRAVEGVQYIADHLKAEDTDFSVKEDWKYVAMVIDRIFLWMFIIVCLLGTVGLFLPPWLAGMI
Sequence of α4β2 nicotinic acetylcholine receptor (α4 subunit) (P17787 26-502): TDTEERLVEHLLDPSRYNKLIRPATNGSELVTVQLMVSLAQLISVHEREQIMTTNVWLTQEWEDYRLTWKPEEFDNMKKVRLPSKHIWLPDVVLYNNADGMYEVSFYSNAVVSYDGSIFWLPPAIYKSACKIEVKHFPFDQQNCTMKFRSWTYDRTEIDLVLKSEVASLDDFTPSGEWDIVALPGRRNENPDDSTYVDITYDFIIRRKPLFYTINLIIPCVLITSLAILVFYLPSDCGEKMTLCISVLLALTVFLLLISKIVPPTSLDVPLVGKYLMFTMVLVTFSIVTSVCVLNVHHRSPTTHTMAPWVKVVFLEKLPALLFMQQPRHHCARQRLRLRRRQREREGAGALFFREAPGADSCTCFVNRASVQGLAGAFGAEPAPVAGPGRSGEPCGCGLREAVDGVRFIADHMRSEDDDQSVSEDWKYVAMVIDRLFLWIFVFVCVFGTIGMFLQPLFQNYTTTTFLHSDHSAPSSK

`O=[N+]([O-])NC1=NCCN1Cc1ccc(Cl)nc1` [IMI, imidacloprid] had a Kb of 18.2 ± 0.9 µM.
